Measured values taken from patent US20250066388A1, “1,3,4,7-TETRAHYDRO-2H-PYRROLO[3',2':5,6]PYRIDO[2,3-B][1,4]OXAZEPINE BCL-2 INHIBITORS” (AbbVie Inc., priority 2022, published 2025).

How the values were obtained:
Bcl-xL protein = Bcl-xL protein (Homo sapiens (Human), UniProt Q07817); experiment: TR-FRET binding assay, Bcl-xL; details: F-Bak peptide probe
Method: (§1) Determination of the utility of compounds having Formula (I) or Formula (II) as binders to and inhibitors of anti-apoptotic Bcl-2 proteins was performed using the Time Resolved-Fluorescence Resonance Energy Transfer (TR-FRET) Assay. Tb-anti-GST antibody was purchased from Invitrogen (Catalog No. PV4216).
A human Bcl-xL encoding sequence was cloned into a pET41A vector. The protein was expressed with E. coli. BL21(DE3)-T1R strain in OETB autoinduction medium at 30° C. for 25 hours. The cell pellets were resuspended in lysis buffer (50 mM Tris, 140 mM NaCl, 1 mM DTT, 10% Glycerol, 0.1% Triton X-100, pH 7.5) and lysed with Microfluidizer. The Bcl-xL protein in clarified cell-lysate was purified with GST affinity chromatography. The eluate was dialyzed in the storage buffer (1×PBS, 10% Glycerol, 2 mM DTT, 1 mM Sodium Azide, pH 7.4) and stored at −80° C.
(§2) […] of a protein (Bcl-2 or Bcl-xL)/probe/antibody mixture pre-equilibrated for one hour in assay buffer was added to each well at final concentrations listed in Table 6 below.
(§3) The samples were then mixed on a shaker for 1 minute and equilibrated for an additional 3 hours at room temperature. For each assay plate, a probe/antibody and protein/antibody/probe mixture were included as a negative and a positive control, respectively. Fluorescence was measured on the Envision (Perkin Elmer) using a 340/35 nm excitation filter and 520/525 (F-Bak) and 495/510 nm (Tb-labeled anti-GST antibody) emission filters. Inhibition constants (Ki) were determined using Wang's equation (Wang FEBS Lett. 1995, 360, 111-114). The TR-FRET assay can be performed in the presence of varying concentrations of human serum (HS) to determine apparent half maximal inhibitory concentration (IC50) after HS protein binding.
(§4) Inhibition constants were determined using Wang's equation (Wang FEBS Lett. 1995, 360:111-4).

Molt-4 cells = experiment: Cell viability counter screen (CellTiter-Glo) in Molt-4 cells; format: cell-based; details: 24 hours, 10% Human Serum
Method: The acute lymphoblastic leukemia (ALL) human cell line RS4;11 (ATCC, Manassas VA) was used as the primary human cell line to assess the cellular activity of compound of the present Examples in vitro and their efficacy in vivo. […] The acute lymphoblastic leukemia cell line Molt-4, which is derived from immature T-lymphoid cells (T-ALL), was used as a counter screen assay.
3000 Cells (0.1×10^6/mL) were seeded in each well of 384-well plate and were treated for 24 hours in a humidified chamber with 5% CO2. Cell viability was determined by CellTiter-Glo as described by the manufacturer's instructions (Promega Corporation, Madison, WI, USA).

Bcl-2 protein = Bcl-2 protein (Homo sapiens (Human), UniProt P10415); experiment: TR-FRET binding assay, Bcl-2; details: F-Bak peptide probe, GST-Bcl-2
Method: as §1
A Bcl-2 human encoding sequence was cloned into a pET41A vector (Novagen). The protein was expressed with E. coli. BL21(DE3)-T1R strain in OETB autoinduction medium at 30° C. for 25 hours. The cell pellets were resuspended in lysis buffer (50 mM Tris, 140 mM NaCl, 1 mM DTT, 10% Glycerol, 2 mM MgCl2, pH 7.3) and lysed with Microfluidizer. The Bcl-2 protein in clarified cell-lysate was purified with affinity chromatography (GST and Ni-NTA). The eluate was loaded onto a Superdex 75 column and further purified with a Q Sepharose column. The protein was purified on a phenyl hydrophobic interaction column and dialyzed in the storage buffer (50 mM Tris, 50 mM NaCl, 2 mM DTT, pH 7.5) and stored at −80° C.
as §2, §3, §4

Chain of Bcl-xL protein (Q07817 other isoform, or with tags, fused parts or gaps): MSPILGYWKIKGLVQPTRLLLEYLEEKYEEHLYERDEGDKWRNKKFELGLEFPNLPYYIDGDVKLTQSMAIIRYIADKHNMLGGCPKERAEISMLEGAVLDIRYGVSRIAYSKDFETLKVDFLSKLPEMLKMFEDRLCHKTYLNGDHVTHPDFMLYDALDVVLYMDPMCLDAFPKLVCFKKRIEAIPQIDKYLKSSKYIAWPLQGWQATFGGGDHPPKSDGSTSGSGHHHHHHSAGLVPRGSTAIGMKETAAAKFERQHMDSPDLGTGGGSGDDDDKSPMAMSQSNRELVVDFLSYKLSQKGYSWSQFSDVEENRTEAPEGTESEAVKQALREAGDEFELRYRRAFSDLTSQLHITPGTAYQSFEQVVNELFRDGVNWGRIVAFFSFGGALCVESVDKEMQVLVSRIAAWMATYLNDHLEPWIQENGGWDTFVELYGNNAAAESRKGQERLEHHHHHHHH
Chain of Bcl-2 protein (P10415 other isoform, or with tags, fused parts or gaps): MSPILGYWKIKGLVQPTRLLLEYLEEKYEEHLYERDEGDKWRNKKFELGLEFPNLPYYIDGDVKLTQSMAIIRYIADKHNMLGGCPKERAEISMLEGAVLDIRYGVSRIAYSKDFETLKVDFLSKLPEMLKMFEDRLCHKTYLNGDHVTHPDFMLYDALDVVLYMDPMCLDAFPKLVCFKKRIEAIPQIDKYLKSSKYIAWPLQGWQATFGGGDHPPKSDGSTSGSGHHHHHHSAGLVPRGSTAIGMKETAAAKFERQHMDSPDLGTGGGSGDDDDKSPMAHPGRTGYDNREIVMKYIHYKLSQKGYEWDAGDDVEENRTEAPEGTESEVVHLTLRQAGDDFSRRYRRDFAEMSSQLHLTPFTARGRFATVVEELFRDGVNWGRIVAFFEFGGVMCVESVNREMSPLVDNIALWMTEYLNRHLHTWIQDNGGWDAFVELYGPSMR

SMILES: CO[C@H]1CC[C@H](CNc2ccc(S(=O)(=O)NC(=O)c3ccc(N4CCN5CC6=C(c7ccc(Cl)cc7)CC(C)(C)C[C@H]6OCCCOC[C@@H]5C4)cc3N3CCCOc4nc5[nH]ccc5cc43)cc2Cl)OC1 [Example 34, N-((3-chloro-4-((((2R,5S)-5-methoxytetrahydro-2H-pyran-2-yl)methyl)amino)phenyl)sulfonyl)-4-((4aS,10aR)-14-(4-chlorophenyl)-12,12-dimethyl-1,2,4a,5,8,9,10a,11,13,15-decahydro-7H,12H-benzo[f]pyrazino[2,1-c][1,8]dioxa[4]azacycloundecin-3(4H)-yl)-2-(3,4-dihydro-2H-pyrrolo[3′,2′:5,6]pyrido[2,3-b][1,4]oxazepin-1(7H)-yl)benzamide]
- Ki (Bcl-xL protein): 446 nM
- EC50 (Molt-4 cells): > 10000 nM
- Ki (Bcl-2 protein): 0.667 nM

SMILES: C[C@H]1CCC(CNc2ccc(S(=O)(=O)NC(=O)c3ccc(N4CCN5CC6=C(c7ccc(Cl)cc7)CC(C)(C)C[C@H]6OCCCOCC5C4)cc3N3CCCOc4nc5[nH]ccc5cc43)cc2[N+](=O)[O-])OC1 (stereo partly drawn) [Example 23, 4-((4aS,10aR)-14-(4-chlorophenyl)-12,12-dimethyl-1,2,4a,5,8,9,10a,11,13,15-decahydro-7H,12H-benzo[f]pyrazino[2,1-c][1,8]dioxa[4]azacycloundecin-3(4H)-yl)-2-(3,4-dihydro-2H-pyrrolo[3′,2′:5,6]pyrido[2,3-b][1,4]oxazepin-1(7H)-yl)-N-((4-((((2R,5S)-5-methyltetrahydro-2H-pyran-2-yl)methyl)amino)-3-nitrophenyl)sulfonyl)benzamide]
- Ki (Bcl-xL protein): 29.7 nM
- EC50 (Molt-4 cells): > 10000 nM
- Ki (Bcl-2 protein): 0.634 nM

SMILES: CO[C@H]1CC[C@H](COc2ccc(S(=O)(=O)NC(=O)c3ccc(N4CCN5CC6=C(c7ccc(Cl)cc7)CC(C)(C)C[C@H]6OCCCOC[C@@H]5C4)cc3N3CCCOc4nc5[nH]ccc5cc43)cc2Cl)OC1 [Example 40, N-((3-chloro-4-(((2R,5S)-5-methoxytetrahydro-2H-pyran-2-yl)methoxy)phenyl)sulfonyl)-4-((4aS,10aR)-14-(4-chlorophenyl)-12,12-dimethyl-1,2,4a,5,8,9,10a,11,13,15-decahydro-7H,12H-benzo[f]pyrazino[2,1-c][1,8]dioxa[4]azacycloundecin-3(4H)-yl)-2-(3,4-dihydro-2H-pyrrolo[3′,2′:5,6]pyrido[2,3-b][1,4]oxazepin-1(7H)-yl)benzamide]
- Ki (Bcl-xL protein): 199 nM
- EC50 (Molt-4 cells): > 10000 nM
- Ki (Bcl-2 protein): 0.349 nM

SMILES: CC1(C)CC(c2ccc(Cl)cc2)=C2CN3CCN(c4ccc(C(=O)NS(=O)(=O)c5ccc(OC[C@H]6CC[C@](C)(O)CC6)c(Cl)c5)c(N5CCCOc6nc7[nH]ccc7cc65)c4)C[C@H]3COCCCO[C@@H]2C1 [Example 43, N-((3-chloro-4-(((1r,4r)-4-hydroxy-4-methylcyclohexyl)methoxy)phenyl)sulfonyl)-4-((4aS,10aR)-14-(4-chlorophenyl)-12,12-dimethyl-1,2,4a,5,8,9,10a,11,13,15-decahydro-7H,12H-benzo[f]pyrazino[2,1-c][1,8]dioxa[4]azacycloundecin-3(4H)-yl)-2-(3,4-dihydro-2H-pyrrolo[3′,2′:5,6]pyrido[2,3-b][1,4]oxazepin-1(7H)-yl)benzamide]
- EC50 (Molt-4 cells): > 10000 nM

SMILES: CC1(C)CC(c2ccc(Cl)cc2)=C2CN3CCN(c4ccc(C(=O)NS(=O)(=O)c5cnc(OC[C@H]6CC[C@@](C)(O)CC6)c(Cl)c5)c(N5CCCOc6nc7[nH]ccc7cc65)c4)C[C@H]3COCCCO[C@@H]2C1 [Example 50, N-((5-chloro-6-(((1s,4s)-4-hydroxy-4-methylcyclohexyl)methoxy)pyridin-3-yl)sulfonyl)-4-((4aS,10aR)-14-(4-chlorophenyl)-12,12-dimethyl-1,2,4a,5,8,9,10a,11,13,15-decahydro-7H,12H-benzo[f]pyrazino[2,1-c][1,8]dioxa[4]azacycloundecin-3(4H)-yl)-2-(3,4-dihydro-2H-pyrrolo[3′,2′:5,6]pyrido[2,3-b][1,4]oxazepin-1(7H)-yl)benzamide]
- EC50 (Molt-4 cells): > 10000 nM

SMILES: CC1(C)CC(c2ccc(Cl)cc2)=C2CN3CCN(c4ccc(C(=O)NS(=O)(=O)c5ccc(NC[C@H]6CC[C@](C)(O)CC6)c([N+](=O)[O-])c5)c(N5CCCOc6nc7[nH]ccc7cc65)c4)C[C@H]3COCCCO[C@@H]2C1 [Example 32, 4-((4aS,10aR)-14-(4-chlorophenyl)-12,12-dimethyl-1,2,4a,5,8,9,10a,11,13,15-decahydro-7H,12H-benzo[f]pyrazino[2,1-c][1,8]dioxa[4]azacycloundecin-3(4H)-yl)-2-(3,4-dihydro-2H-pyrrolo[3′,2′:5,6]pyrido[2,3-b][1,4]oxazepin-1(7H)-yl)-N-((4-((((1r,4r)-4-hydroxy-4-methylcyclohexyl)methyl)amino)-3-nitrophenyl)sulfonyl)benzamide]
- Ki (Bcl-xL protein): 15.8 nM
- Ki (Bcl-2 protein): 0.397 nM

SMILES: COC1CO[C@H](CNc2ccc(S(=O)(=O)NC(=O)c3ccc(N4CCN5CC6=C(c7ccc(Cl)cc7)CC(C)(C)C[C@H]6OCCCOC[C@@H]5C4)cc3N3CCCOc4nc5[nH]ccc5cc43)cc2[N+](=O)[O-])C1 (stereo partly drawn) [Example 29, 4-((4aS,10aR)-14-(4-chlorophenyl)-12,12-dimethyl-1,2,4a,5,8,9,10a,11,13,15-decahydro-7H,12H-benzo[f]pyrazino[2,1-c][1,8]dioxa[4]azacycloundecin-3(4H)-yl)-2-(3,4-dihydro-2H-pyrrolo[3′,2′:5,6]pyrido[2,3-b][1,4]oxazepin-1(7H)-yl)-N-((4-((((2S)-4-methoxytetrahydrofuran-2-yl)methyl)amino)-3-nitrophenyl)sulfonyl)benzamide]
- Ki (Bcl-xL protein): 22.5 nM
- Ki (Bcl-2 protein): 2.59 nM

SMILES: CO[C@H]1CC[C@H](CNc2ccc(S(=O)(=O)NC(=O)c3ccc(N4CCN5CC6=C(c7ccc(Cl)cc7)CC(C)(C)C[C@H]6OCCCOC[C@@H]5C4)cc3N3CCCOc4nc5[nH]ccc5cc43)cc2[N+](=O)[O-])CC1 [Example 5, 4-((4aS,10aR)-14-(4-chlorophenyl)-12,12-dimethyl-1,2,4a,5,8,9,10a,11,13,15-decahydro-7H,12H-benzo[f]pyrazino[2,1-c][1,8]dioxa[4]azacycloundecin-3(4H)-yl)-2-(3,4-dihydro-2H-pyrrolo[3′,2′:5,6]pyrido[2,3-b][1,4]oxazepin-1(7H)-yl)-N-((4-((((1r,4r)-4-methoxycyclohexyl)methyl)amino)-3-nitrophenyl)sulfonyl)benzamide]
- Ki (Bcl-xL protein): 20 nM
- Ki (Bcl-2 protein): 0.149 nM

SMILES: CO[C@H]1CC[C@H](CNc2ccc(S(=O)(=O)NC(=O)c3ccc(N4CCN5CC6=C(c7ccc(Cl)cc7)CC(C)(C)C[C@H]6OCCCOC[C@@H]5C4)cc3N3CCCOc4nc5[nH]ccc5cc43)cc2[N+](=O)[O-])OC1 [Example 13, 4-((4aS,10aR)-14-(4-chlorophenyl)-12,12-dimethyl-1,2,4a,5,8,9,10a,11,13,15-decahydro-7H,12H-benzo[f]pyrazino[2,1-c][1,8]dioxa[4]azacycloundecin-3(4H)-yl)-2-(3,4-dihydro-2H-pyrrolo[3′,2′:5,6]pyrido[2,3-b][1,4]oxazepin-1(7H)-yl)-N-((4-((((2R,5S)-5-methoxytetrahydro-2H-pyran-2-yl)methyl)amino)-3-nitrophenyl)sulfonyl)benzamide]
- Ki (Bcl-xL protein): 6.8 nM
- Ki (Bcl-2 protein): 0.35 nM

SMILES: CC1(C)CC(c2ccc(Cl)cc2)=C2CN3CCN(c4ccc(C(=O)NS(=O)(=O)c5cnc(OC[C@H]6CC[C@](C)(O)CC6)c(Cl)c5)c(N5CCCOc6nc7[nH]ccc7cc65)c4)C[C@H]3COCCCO[C@@H]2C1 [Example 42, N-((5-chloro-6-(((1r,4r)-4-hydroxy-4-methylcyclohexyl)methoxy)pyridin-3-yl)sulfonyl)-4-((4aS,10aR)-14-(4-chlorophenyl)-12,12-dimethyl-1,2,4a,5,8,9,10a,11,13,15-decahydro-7H,12H-benzo[f]pyrazino[2,1-c][1,8]dioxa[4]azacycloundecin-3(4H)-yl)-2-(3,4-dihydro-2H-pyrrolo[3′,2′:5,6]pyrido[2,3-b][1,4]oxazepin-1(7H)-yl)benzamide]
- EC50 (Molt-4 cells): > 10000 nM
